Reference: US10894042B2, “Methods and pharmaceutical compositions for the treatment of cancer” (INSERM (INSTITUT NATIONAL DE LA SANTÉ ET DE LA RECHERCHE …, priority 2014, dated 2021)
Where no end group is shown, it is not given here.

Experiments:
OX1R = biological target: T1, OX1R (Homo sapiens, UniProt O43613); experiment: Ca2+ mobilization assay in HEK-OX1R cells (FluoForte); format: cell-based
T1 construct: HEK cells expressing recombinant native OX1R (HEK-OX1R) cells were seeded in 96-wells plate; expressed in transfected cells; host or cells: HEK cells (HEK-OX1R)
T1 sequence (O43613 1-425): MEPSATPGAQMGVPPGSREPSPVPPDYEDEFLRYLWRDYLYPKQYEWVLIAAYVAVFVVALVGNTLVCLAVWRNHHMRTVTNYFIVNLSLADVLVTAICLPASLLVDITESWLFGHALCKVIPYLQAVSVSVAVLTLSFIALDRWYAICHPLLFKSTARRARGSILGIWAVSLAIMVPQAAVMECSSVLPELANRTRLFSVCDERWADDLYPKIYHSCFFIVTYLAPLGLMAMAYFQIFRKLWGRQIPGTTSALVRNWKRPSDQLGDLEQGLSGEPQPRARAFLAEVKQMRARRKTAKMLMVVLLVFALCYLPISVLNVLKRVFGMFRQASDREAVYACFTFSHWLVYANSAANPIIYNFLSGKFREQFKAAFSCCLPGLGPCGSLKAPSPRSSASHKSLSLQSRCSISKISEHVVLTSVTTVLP
Experimental: FIG. 1: Effect of orexin-A and SB408124 antagonist on Ca2+ mobilization in HEK-OX1R cells. Top, HEK-OX1R cells were incubated with fluorescence probe (FluoForte) for 45 min. at 37° C. according to FluoForte calcium assay kit (Enzo Life Sciences). 1 μM of OxA was added to cells and fluorescence emission was measured on TECAN Infinite 200 fluorospectrophotometer. Bottom, HEK-OX1R cells were incubated with fluorescence probe (FluoForte) for 45 min. at 37° C. and then incubated with 1 μM of SB408124 for 1 h at 37° C. After pre-incubation, 1 μM of OxA was added to cells and fluorescence emission was measured.
HEK cells expressing recombinant native OX1R (HEK-OX1R) cells were seeded in 96-wells plate, grown and maintained at 37° C. in a humidified 5% CO2/air incubator. 80,000 cells/well were incubated with FluoForte probe according to FluoForte calcium assay kit (ENZO life Sciences, Farmingdale, N.Y., USA) for 45 min. at 37° C. and then incubated with or without 1 μM of SB408124 antagonist for 1 h at 37° C. After pre-incubation, 1 μM of OxA was added and fluorescence was determined using TECAN Infinite 200 fluorospectrophotometer.

HEK-OX1R cells = experiment: Cell growth determination, HEK-OX1R cells; format: cell-based; conditions: 48 hr incubation, viable cells counted, OxA 0.1 μM, SB408124 increasing concentrations
Experimental: (§1) FIG. 2: Determination of the inhibition of cellular growth of HEK-OX1R cells and colon adenocarcinoma cells (HT-29) induced by […] of OxA or various concentrations of SB408124 antagonist. HEK-OX1R cells (black column) and HT-29 cells (white column) were incubated with 0.1 μM of OxA and indicated increasing concentration of SB408124, and cells were counted after 48 hr incubation. Results are expressed as the percentage of total viable cells.
(§2) HEK-OX1R cells or colon adenocarcinoma HT-29 cells were seeded, grown and maintained at 37° C. in a humidified 5% CO2/air incubator. After 24 hr culture, cells were treated with or without Orexin-A peptide or SB408124 antagonist, previously dissolved in DMSO, to be tested at the concentration indicated in the figure legends. After 48 hr of treatment, adherent cells were harvested by TriplE (Life Technologies, Saint Aubin, France) and manually counted. Apoptosis was determined using the Guava PCA system and the Guava nexin kit.

[1] = tested on: colon adenocarcinoma HT-29 cells; experiment: Cell growth determination, HT-29 cells; format: cell-based; conditions: 48 hr incubation, viable cells counted, OxA 0.1 μM, SB408124 increasing concentrations
Experimental: as §1, §2

[2] = tested on: OX1R expressing colon adenocarcinoma cells, HT-29; experiment: Apoptosis assay (annexin V-PE binding, Guava nexin kit), HT-29 cells; format: cell-based; conditions: for apoptosis (annexin V-PE binding): HT-29 cells, 48 h, 1 μM orexin-A or various concentrations of SB408124
Experimental: FIG. 3: Effect of orexin-A and SB408124 antagonist on apoptosis in OX1R expressing colon adenocarcinoma cells, HT-29. HT-29 cells were challenged with 1 μM orexin-A or various concentration of SB408124 for 48 h. Apoptosis was measured by determination of annexin V-PE binding, and results are expressed as the percentage of apoptotic cells. Results are means±SE of three experiments. ***P<0.001.
as §2

[3] = tested on: human colon cancer cells (LoVo cells); experiment: Growth of tumors from human colon cancer cell xenografts in nude mice; format: in vivo; conditions: for tumor growth versus PBS control mice: LoVo xenograft in nude mice, 100 μg intraperitoneally 2 times/week, 48 days of treatment
Experimental: FIG. 4: Effect of ip inoculation of OxA (▴), Suvorexant (◯) and Almorexant (Δ) on the growth of tumors developed by xenografting human colon cancer cells in nude mice. A. LoVo cells were inoculated in the flank of nude mice at day 0. Mice were injected 2 times/week intraperitoneally with 100 μg of OxA, Suvorexant or Almorexant in 100 μl solutions or with 100 μl of PBS (●) for controls. After 48 days of treatment, mice were sacrificed and tumor volume and weight were then recorded. The development of tumors was followed by caliper measurement. B. treatment (2 injections/week) with various doses of Almorexant (1 mg/kg (□), 2.5 mg/kg (Δ) or 5 mg/kg (◯)) compared to OxA treatment (5 mg/kg, ▴). Control was performed by injection of 100 μl PBS (●).
The inventors investigated the effect of intraperitoneal inoculation of OxA, Suvorexant and Almorexant on the growth of tumors developed by xenografting human colon cancer cells (LoVo cells) in nude mice.

Molecule	Ca2+ mobilization (OX1R; 1 μM OxA, fluorescence (FluoForte))	inhibition of cellular growth (HEK-OX1R cells)	inhibition of cellular growth [1]	apoptosis (annexin V-PE binding) [2]	tumor growth versus PBS control mice [3]	tumor growth inhibition, dose dependence ([3]; LoVo xenograft in nude mice, 1, 2.5 or 5 mg/kg, 2 injections/week)	agonist/antagonist character for OX1R-mediated calcium mobilization (OX1R)	effect on OxA-induced Ca2+ mobilization (OX1R; preincubation with 1 μM SB408124 for 1 h at 37° C., then 1 μM OxA)	agonist/antagonist character for OX1R-mediated mitochondrial apoptosis ([2]; colon cancer cell line)
OxA: orexin A, a 33 amino acid neuropeptide, the natural OX1R agonist (QPLPDCCRQKTCSCRLYELLHGAGNHAAGILTL; ends and bridges not checked; cysteine pairing not given here; UniProt O43612 34-66, looked up)	large and transient	strong inhibition	strong inhibition	induced an apoptotic effect	significantly smaller tumors	–	–	–	–
Cc1ccc(-n2nccn2)c(C(=O)N2CCN(c3nc4cc(Cl)ccc4o3)CC[C@H]2C)c1 [Suvorexant]	–	–	–	–	significantly smaller tumors	–	–	–	–
CNC(=O)[C@@H](c1ccccc1)N1CCc2cc(OC)c(OC)cc2[C@@H]1CCc1ccc(C(F)(F)F)cc1 [Almorexant]	–	–	–	–	significantly smaller tumors	induce in a dose-dependent manner tumor growth inhibition	–	–	–
Cc1cc(NC(=O)Nc2ccc(N(C)C)cc2)c2cc(F)cc(F)c2n1 [SB408124]	–	strong inhibition in a dose-dependent manner	strong inhibition in a dose-dependent manner	induce in a dose-dependent manner cell apoptosis	–	–	full antagonist	totally abolished	full agonist
